From US10669290B2, “Beta-lactamase inhibitors” (priority 2012, dated 2020)

Tests used:
Assay type in all cases: cell-based
E. coli ESBL4 CTX-M-15 = experiment: Broth microdilution MIC, E. coli ESBL4; conditions: Escherichia coli, ESBL4CTXM15; fixed ceftazidime 4 μg/mL, CAMHB, 16-20 hours 37° C.; read-out: MIC of exemplary compounds in presence of fixed β-lactams, Fixed CAZ, E. coli ESBL4 CTX-M-15
In short: (§1)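 Potentiation MIC: the lowest test compound concentration inhibiting visible growth in cation-adjusted Mueller Hinton broth containing a β-lactam at a static 4 μg/ml. Compound range was 32–0.25 μg/mL; incubation lasted 16-20 hours at 37° C.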

E. cl 144200 p99 AmpC = experiment: Broth microdilution MIC, E. cloacae 144200; conditions: Enterobacter cloacae; fixed ceftazidime 4 μg/mL, CAMHB, 16-20 hours 37° C.; read-out: MIC of exemplary compounds in presence of fixed β-lactams, Fixed CAZ, E. cl 144200 p99 AmpC
In short: as §1

K.P. 156319 KPC-3 = experiment: Broth microdilution MIC, K. pneumoniae 156319; conditions: Klebsiella pneumoniae; fixed meropenem 4 μg/mL, CAMHB, 16-20 hours 37° C.; read-out: MIC of exemplary compounds in presence of fixed β-lactams, Fixed Mero, K.P. 156319 KPC-3
P. aerug. Ps296 VIM-2 = experiment: Broth microdilution MIC, P. aeruginosa Ps296; conditions: Pseudomonas aeruginosa; fixed meropenem 4 μg/mL, CAMHB, 16-20 hours 37° C.; read-out: MIC of exemplary compounds in presence of fixed β-lactams, Fixed Mero, P. aerug. Ps296 VIM-2
In short: as §1

K.P. A-1797 KPC-2 VIM-4 = experiment: Broth microdilution MIC, K. pneumoniae A-1797; conditions: Klebsiella pneumoniae; fixed meropenem 4 μg/mL, CAMHB, 16-20 hours 37° C.; read-out: MIC of exemplary compounds in presence of fixed β-lactams, Fixed Mero, K.P. A-1797 KPC-2 VIM-4
S. aureus MSSA-7 PC-1 = experiment: Broth microdilution MIC, S. aureus MSSA-7; conditions: Staphylococcus aureus, fixed piperacillin 4 μg/mL, CAMHB, 16-20 hours 37° C., read-out: MIC of exemplary compounds in presence of fixed β-lactams, Fixed Pip, S. aureus MSSA-7 PC-1

Row | Structure (SMILES) | MIC (E. coli ESBL4 CTX-M-15) [µg/mL] | MIC (E. cl 144200 p99 AmpC) [µg/mL] | MIC (K.P. 156319 KPC-3) [µg/mL] | MIC (P. aerug. Ps296 VIM-2) [µg/mL] | MIC (K.P. A-1797 KPC-2 VIM-4) [µg/mL] | MIC (S. aureus MSSA-7 PC-1) [µg/mL]
1 | O=C(C[C@H]1CC[C@H](NCCNc2ncccn2)CC1)N[C@H]1Cc2cccc(C(=O)O)c2OB1O [Example 72] | < 4 | < 4 | < 4 | < 4 | 8 to 32 | < 4
2 | N[C@H]1CC[C@H](C(=O)N[C@H]2Cc3cccc(C(=O)O)c3OB2O)CC1 [Example 2, (R)-3-(trans-4-aminocyclohexanecarboxamido)-2-hydroxy-3,4-dihydro-2H-benzol[e][1,2]oxaborinine-8-carboxylic acid] | < 4 | < 4 | < 4 | < 4 | < 4 | 8 to 32
3 | O=C(C[C@H]1CC[C@H](NCc2nccs2)CC1)N[C@H]1Cc2cccc(C(=O)O)c2OB1O [Example 39] | < 4 | < 4 | < 4 | 8 to 32 | 8 to 32 | < 4
4 | N=C(N)N[C@H]1CC[C@H](CC(=O)N[C@H]2Cc3cccc(C(=O)O)c3OB2O)CC1 [Example 9, (R)-3-(2-(trans-4-guanidinocyclohexyl)acetamido)-2-hydroxy-3,4-dihydro-2H-benzo[e][1,2]oxaborinine-8-carboxylic acid] | < 4 | < 4 | < 4 | 8 to 32 | 8 to 32 | < 4
5 | N[C@@H](CO)CN[C@H]1CC[C@H](CC(=O)N[C@H]2Cc3cccc(C(=O)O)c3OB2O)CC1 [Example 65, (R)-3-(2-(trans-4-((R)-2-amino-3-hydroxypropylamino)cyclohexyl)acetamido)-2-hydroxy-3,4-dihydro-2H-benzol[e][1,2]oxaborinine-8-carboxylic acid] | < 4 | < 4 | < 4 | 8 to 32 | < 4 | < 4
6 | O=C(C[C@H]1CC[C@H](NCCNc2ccccn2)CC1)N[C@H]1Cc2cccc(C(=O)O)c2OB1O [Example 48, (R)-2-hydroxy-3-(2-(trans-4-(2-(pyridin-2-ylamino)ethylamino)cyclohexyl)acetamido)-3,4-dihydro-2H-benzo[e][1,2]oxaborinine-8-carboxylic acid] | < 4 | < 4 | < 4 | 8 to 32 | 8 to 32 | < 4
7 | O=C(C[C@H]1CC[C@H](N2CCNCC2)CC1)N[C@H]1Cc2cccc(C(=O)O)c2OB1O [Example 16, (R)-2-hydroxy-3-(2-(trans-4-(piperazin-1-yl)cyclohexyl)acetamido)-3,4-dihydro-2H-benzo[e][1,2]oxaborinine-8-carboxylic acid] | < 4 | < 4 | < 4 | 8 to 32 | > 32 | < 4
8 | CNCCN[C@H]1CC[C@H](C(CO)C(=O)N[C@H]2Cc3cccc(C(=O)O)c3OB2O)CC1 (stereo partly drawn) [Example 64, (R)-2-hydroxy-3-(3-hydroxy-2-(trans-4-(2-(methylamino)ethylamino)cyclohexyl)propanamido)-3,4-dihydro-2H-benzo[e][1,2]oxaborinine-8-carboxylic acid] | < 4 | < 4 | < 4 | < 4 | < 4 | < 4
9 | NCCN[C@H]1CC[C@H](CC(=O)N[C@@H]2Cc3cccc(C(=O)O)c3OB2O)CC1 [Example 50, (S)-3-(2-(trans-4-(2-aminoethylamino)cyclohexyl)acetamido)-2-hydroxy-3,4-dihydro-2H-benzo[e][1,2]oxaborinine-8-carboxylic acid] | < 4 | < 4 | > 32 | < 4 | 8 to 32 | < 4
10 | O=C(C[C@H]1CC[C@H](NCc2cccnc2)CC1)N[C@H]1Cc2cccc(C(=O)O)c2OB1O [Example 27, (R)-2-hydroxy-3-(2-(trans-4-(pyridin-3-ylmethylamino)cyclohexyl)acetamido)-3,4-dihydro-2H-benzo[e][1,2]oxaborinine-8-carboxylic acid] | < 4 | < 4 | < 4 | 8 to 32 | 8 to 32 | < 4
11 | O=C(C[C@H]1CC[C@H](NCC2CCNCC2)CC1)N[C@H]1Cc2cccc(C(=O)O)c2OB1O [Example 33, (R)-2-hydroxy-3-(2-(trans-4-(piperidin-4-ylmethylamino)cyclohexyl)acetamido)-3,4-dihydro-2H-benzo[e][1,2]oxaborinine-8-carboxylic acid] | < 4 | < 4 | < 4 | 8 to 32 | 8 to 32 | < 4
12 | CC(NC(=O)C1C[C@H](N)[C@@H](N)C1)C(=O)N[C@H]1Cc2cccc(C(=O)O)c2OB1O (stereo partly drawn) [Example 38] | < 4 | < 4 | < 4 | < 4 | < 4 | < 4
13 | N[C@H]1CC(CC(=O)N[C@H]2Cc3cccc(C(=O)O)c3OB2O)C[C@@H]1N [Example 37] | < 4 | < 4 | < 4 | < 4 | 8 to 32 | < 4
14 | NCCNC[C@H]1CC[C@H](CC(=O)N[C@H]2Cc3cccc(C(=O)O)c3OB2O)CC1 [Example 10, (R)-3-(2-(trans-4-((2-aminoethylamino)methyl)cyclohexyl)acetamido)-2-hydroxy-3,4-dihydro-2H-benzo[e][1,2]oxaborinine-8-carboxylic acid] | < 4 | < 4 | < 4 | 8 to 32 | < 4 | < 4
15 | O=C(C[C@H]1CC[C@H](NCCO)CC1)N[C@H]1Cc2cccc(C(=O)O)c2OB1O [Example 26, (R)-2-hydroxy-3-(2-(trans-4-(2-hydroxyethylamino)cyclohexyl)acetamido)-3,4-dihydro-2H-benzo[e][1,2]oxaborinine-8-carboxylic acid] | < 4 | < 4 | < 4 | < 4 | < 4 | < 4
16 | N=CN[C@H]1CC[C@H](CC(=O)N[C@H]2Cc3cccc(C(=O)O)c3OB2O)CC1 [Example 30, (R)-3-(2-(trans-4-formimidamidocyclohexyl)acetamido)-2-hydroxy-3,4-dihydro-2H-benzo[e][1,2]oxaborinine-8-carboxylic acid] | < 4 | < 4 | < 4 | 8 to 32 | 8 to 32 | < 4
17 | CN(CCN)[C@H]1CC[C@H](CC(=O)N[C@H]2Cc3cccc(C(=O)O)c3OB2O)CC1 [Example 63, (R)-3-(2-(trans-4-((2-aminoethyl)(methyl)amino)cyclohexyl)acetamido)-2-hydroxy-3,4-dihydro-2H-benzo[e][1,2]oxaborinine-8-carboxylic acid] | < 4 | < 4 | < 4 | < 4 | < 4 | < 4
18 | C[C@H](N)CNCCN[C@H]1CC[C@H](CC(=O)N[C@H]2Cc3cccc(C(=O)O)c3OB2O)CC1 [Example 62, (R)-3-(2-(trans-4-(2-((S)-2-aminopropylamino)ethylamino)cyclohexyl)acetamido)-2-hydroxy-3,4-dihydro-2H-benzo[e][1,2]oxaborinine-8-carboxylic acid] | < 4 | < 4 | < 4 | 8 to 32 | < 4 | < 4
